This note sets out measurements from patent US11419869B2, “Dosage forms and regimens for amino acid compounds” (Pliant Therapeutics, Inc., priority 2019, dated 2022).

The target in the experiment is recombinant human integrin αvβ6 (Homo sapiens (Human), UniProt P06756+P18564). In words: Solid Phase Integrin αvβ6 Binding Assay (Examples B1, B2). Particulars: TGFβ1 LAP ligand, values given in four ranges, read-out: αvβ6 Inhibition IC50 (nM)-range. The essentials:
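Plates coated with recombinant human αvβ6 (2 μg/mL) compete compound against recombinant TGFβ1 LAP (0.67 μg/mL) in TBS binding buffer with 0.5 mM MnCl2, 2 h at 25 °C. Bound LAP detected with biotin-anti-hLAP and peroxidase-streptavidin; IC50 by four-parameter logistic regression.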

Sequence of recombinant human integrin αvβ6 (P06756 31-992): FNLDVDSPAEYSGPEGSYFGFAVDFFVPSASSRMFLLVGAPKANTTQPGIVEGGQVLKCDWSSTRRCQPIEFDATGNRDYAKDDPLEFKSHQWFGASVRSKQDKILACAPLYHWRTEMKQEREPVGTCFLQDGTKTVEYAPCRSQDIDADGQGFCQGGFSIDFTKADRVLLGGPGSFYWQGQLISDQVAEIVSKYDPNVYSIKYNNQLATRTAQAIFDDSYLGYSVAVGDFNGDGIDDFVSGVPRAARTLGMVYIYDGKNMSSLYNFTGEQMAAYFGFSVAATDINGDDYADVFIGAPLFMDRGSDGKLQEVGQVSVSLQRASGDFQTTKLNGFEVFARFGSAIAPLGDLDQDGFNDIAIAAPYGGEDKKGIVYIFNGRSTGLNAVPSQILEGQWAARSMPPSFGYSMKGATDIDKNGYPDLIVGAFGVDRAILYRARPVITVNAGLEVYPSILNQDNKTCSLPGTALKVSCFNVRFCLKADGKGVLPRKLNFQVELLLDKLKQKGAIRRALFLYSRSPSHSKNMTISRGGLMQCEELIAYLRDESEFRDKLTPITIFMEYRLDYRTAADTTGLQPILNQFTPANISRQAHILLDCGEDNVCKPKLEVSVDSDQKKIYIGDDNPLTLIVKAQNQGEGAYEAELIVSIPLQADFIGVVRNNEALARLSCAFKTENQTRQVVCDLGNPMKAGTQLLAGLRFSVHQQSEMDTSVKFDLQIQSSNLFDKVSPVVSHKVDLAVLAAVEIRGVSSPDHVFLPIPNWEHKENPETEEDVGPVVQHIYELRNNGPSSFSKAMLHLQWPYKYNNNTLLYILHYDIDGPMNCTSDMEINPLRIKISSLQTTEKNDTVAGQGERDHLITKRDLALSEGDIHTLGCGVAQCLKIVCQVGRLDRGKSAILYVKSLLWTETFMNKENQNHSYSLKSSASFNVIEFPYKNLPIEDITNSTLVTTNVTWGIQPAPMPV
Sequence of recombinant human integrin αvβ6 (P18564 22-707): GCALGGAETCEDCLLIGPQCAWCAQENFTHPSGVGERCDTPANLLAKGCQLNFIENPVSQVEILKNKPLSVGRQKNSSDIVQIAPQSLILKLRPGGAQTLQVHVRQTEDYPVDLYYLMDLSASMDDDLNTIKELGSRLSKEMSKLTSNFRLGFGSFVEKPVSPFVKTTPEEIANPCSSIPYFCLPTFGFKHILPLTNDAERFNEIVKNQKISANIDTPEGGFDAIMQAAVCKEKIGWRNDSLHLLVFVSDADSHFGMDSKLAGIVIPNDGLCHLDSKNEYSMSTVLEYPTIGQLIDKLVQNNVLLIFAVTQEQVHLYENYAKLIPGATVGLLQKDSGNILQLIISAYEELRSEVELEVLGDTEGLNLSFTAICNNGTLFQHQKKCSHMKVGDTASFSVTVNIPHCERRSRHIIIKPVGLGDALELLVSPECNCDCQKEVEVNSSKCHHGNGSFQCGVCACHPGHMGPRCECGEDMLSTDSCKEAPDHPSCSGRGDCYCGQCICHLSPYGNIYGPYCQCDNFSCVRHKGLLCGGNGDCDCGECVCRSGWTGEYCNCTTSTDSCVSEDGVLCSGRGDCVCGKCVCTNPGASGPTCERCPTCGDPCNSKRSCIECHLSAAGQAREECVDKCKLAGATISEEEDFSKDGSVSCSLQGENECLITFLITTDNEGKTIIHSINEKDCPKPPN

As to `COC[C@@H](F)CN(CCCCc1ccc2c(n1)NCCC2)CC[C@H](Nc1nc(-c2cccnc2)nc2ccccc12)C(=O)O` [Compound 109, (S)-4-(((S)-2-fluoro-3-methoxypropyl) (4-(5,6,7,8-tetrahydro-1,8-naphthyridin-2-yl)butyl)amino)-2-((2-(pyridin-3-yl)quinazolin-4-yl)amino) butanoic acid], the concentration for half-maximal inhibition (IC50) was less than 50 nM.
In the case of `COC[C@@H](F)CN(CCCCc1ccc2c(n1)NCCC2)CC[C@H](Nc1ncncc1-c1ccccc1)C(=O)O` [Compound 110, (S)-4-(((S)-2-fluoro-3-methoxypropyl) (4-(5,6,7,8-tetrahydro-1,8-naphthyridin-2-yl)butyl)amino)-2-((5-phenylpyrimidin-4-yl)amino) butanoic acid], the IC50 is less than 50 nM.
Take `N#Cc1cnc(N[C@@H](CCN(CCCCc2ccc3c(n2)NCCC3)CCOc2ccccc2)C(=O)O)nc1` [Compound 111, (S)-2-((5-cyanopyrimidin-2-yl)amino)-4-((2-phenoxyethyl) (4-(5,6,7,8-tetrahydro-1,8-naphthyridin-2-yl)butyl)amino) butanoic acid]: the concentration for half-maximal inhibition (IC50) is less than 50 nM.
As for `O=C(O)[C@H](CCN(CCCCc1ccc2c(n1)NCCC2)C1CC1)Nc1ncc(C(F)(F)F)cn1` [Compound 114, (S)-4-(cyclopropyl(4-(5,6,7,8-tetrahydro-1,8-naphthyridin-2-yl)butyl)amino)-2-((5-(trifluoromethyl)pyrimidin-2-yl)amino) butanoic acid], the IC50 was less than 50 nM.
Consider `O=C(O)[C@H](CCN(CCCCc1ccc2c(n1)NCCC2)CCOc1ccccc1)Nc1ncc(C2CC2)cn1` [Compound 117, (S)-2-((5-cyclopropylpyrimidin-2-yl)amino)-4-((2-phenoxyethyl) (4-(5,6,7,8-tetrahydro-1,8-naphthyridin-2-yl)butyl)amino) butanoic acid], for which the IC50 is less than 50 nM.
Regarding `N#Cc1cnc(N[C@@H](CCN(CCCCc2ccc3c(n2)NCCC3)CC(F)F)C(=O)O)nc1` [Compound 118, (S)-2-((5-cyanopyrimidin-2-yl)amino)-4-((2,2-difluoroethyl) (4-(5,6,7,8-tetrahydro-1,8-naphthyridin-2-yl)butyl)amino) butanoic acid], the IC50 is greater than 1000 nM.
Regarding `O=C(O)[C@H](CCN(CCCCc1ccc2c(n1)NCCC2)CC(F)F)Nc1ncncc1-c1ccccc1` [Compound 119, (S)-4-((2,2-difluoroethyl) (4-(5,6,7,8-tetrahydro-1,8-naphthyridin-2-yl)butyl)amino)-2-((5-phenylpyrimidin-4-yl)amino) butanoic acid], the IC50 is greater than 1000 nM.
Turning to `O=C(O)[C@H](CCN(CCCCc1ccc2c(n1)NCCC2)CC(F)F)Nc1ccncn1` [Compound 120, (S)-4-((2,2-difluoroethyl) (4-(5,6,7,8-tetrahydro-1,8-naphthyridin-2-yl)butyl)amino)-2-(pyrimidin-4-ylamino) butanoic acid], the IC50 is greater than 1000 nM.
For `O=C(O)[C@H](CCN(CCCCc1ccc2c(n1)NCCC2)CC(F)F)Nc1ncc(F)cn1` [Compound 121, (S)-4-((2,2-difluoroethyl) (4-(5,6,7,8-tetrahydro-1,8-naphthyridin-2-yl)butyl)amino)-2-((5-fluoropyrimidin-2-yl)amino) butanoic acid], the IC50 is greater than 1000 nM.
Under `Cn1ncc2c(N[C@@H](CCN(CCCCc3ccc4c(n3)NCCC4)CCOc3ccc(F)cc3)C(=O)O)ncnc21` [Compound 123, (S)-4-((2-(4-fluorophenoxy)ethyl) (4-(5,6,7,8-tetrahydro-1,8-naphthyridin-2-yl)butyl)amino)-2-((1-methyl-1H-pyrazolo[3,4-d]pyrimidin-4-yl)amino) butanoic acid] stands less than 50 nM; under `CO[C@H](C)CN(CCCCc1ccc2c(n1)NCCC2)CC[C@H](Nc1ncc(C2CC2)cn1)C(=O)O` [Compound 124, (S)-2-((5-cyclopropylpyrimidin-2-yl)amino)-4-(((R)-2-methoxypropyl) (4-(5,6,7,8-tetrahydro-1,8-naphthyridin-2-yl)butyl)amino) butanoic acid], less than 50 nM; under `CS(=O)(=O)CCN(CCCCc1ccc2c(n1)NCCC2)CC[C@H](Nc1cc(-n2cccn2)ncn1)C(=O)O` [Compound 126, (S)-2-((6-(1H-pyrazol-1-yl)pyrimidin-4-yl)amino)-4-((2-(methylsulfonyl)ethyl) (4-(5,6,7,8-tetrahydro-1,8-naphthyridin-2-yl)butyl)amino) butanoic acid], greater than 1000 nM.
To `COC[C@@H](F)CN(CCCCc1ccc2c(n1)NCCC2)CC[C@H](Nc1cc(-c2ccccc2)ncn1)C(=O)O` [Compound 128, (S)-4-(((S)-2-fluoro-3-methoxypropyl) (4-(5,6,7,8-tetrahydro-1,8-naphthyridin-2-yl)butyl)amino)-2-((6-phenylpyrimidin-4-yl)amino) butanoic acid] belongs greater than 1000 nM; to `O=C(O)[C@H](CCN(CCCCc1ccc2c(n1)NCCC2)CC1CCO1)Nc1ncnc2ccccc12` (stereo partly drawn) [Compound 129, (2S)-4-((oxetan-2-ylmethyl) (4-(5,6,7,8-tetrahydro-1,8-naphthyridin-2-yl)butyl)amino)-2-(quinazolin-4-ylamino) butanoic acid], less than 50 nM; to `O=C(O)[C@H](CCN(CCCCc1ccc2c(n1)NCCC2)CC(CO)CO)Nc1ncnc2ccccc12` [Compound 130, (S)-4-((3-hydroxy-2-(hydroxymethyl)propyl) (4-(5,6,7,8-tetrahydro-1,8-naphthyridin-2-yl)butyl)amino)-2-(quinazolin-4-ylamino) butanoic acid], less than 50 nM.
Take `Cn1ncc2c(N[C@@H](CCN(CCCF)CCCCc3ccc4c(n3)NCCC4)C(=O)O)ncnc21` [Compound 136, (S)-4-((3-fluoropropyl) (4-(5,6,7,8-tetrahydro-1,8-naphthyridin-2-yl)butyl)amino)-2-((1-methyl-1H-pyrazolo[3,4-d]pyrimidin-4-yl)amino) butanoic acid]: the IC50 is less than 50 nM.
With `O=C(O)[C@H](CCN(CCCF)CCCCc1ccc2c(n1)NCCC2)Nc1ncc(C(F)(F)F)cn1` [Compound 137, (S)-4-((3-fluoropropyl) (4-(5,6,7,8-tetrahydro-1,8-naphthyridin-2-yl)butyl)amino)-2-((5-(trifluoromethyl)pyrimidin-2-yl)amino) butanoic acid], the IC50 is less than 50 nM.
Consider `N#Cc1cnc(N[C@@H](CCN(CCCCc2ccc3c(n2)NCCC3)CCOc2ccc(F)cc2)C(=O)O)nc1` [Compound 138, (S)-2-((5-cyanopyrimidin-2-yl)amino)-4-((2-(4-fluorophenoxy)ethyl) (4-(5,6,7,8-tetrahydro-1,8-naphthyridin-2-yl)butyl)amino) butanoic acid], for which the half-inhibitory concentration (IC50) was less than 50 nM.
As to `O=C(O)[C@H](CCN(CCCCc1ccc2c(n1)NCCC2)CCOc1ccc(F)cc1)Nc1ncc(C(F)(F)F)cn1` [Compound 139, (S)-4-((2-(4-fluorophenoxy)ethyl) (4-(5,6,7,8-tetrahydro-1,8-naphthyridin-2-yl)butyl)amino)-2-((5-(trifluoromethyl)pyrimidin-2-yl)amino) butanoic acid], the IC50 was less than 50 nM.
Regarding `CN(C)C(=O)CN(CCCCc1ccc2c(n1)NCCC2)CC[C@H](Nc1ncnc2c1cnn2C)C(=O)O` [Compound 140, (S)-4-((2-(dimethylamino)-2-oxoethyl) (4-(5,6,7,8-tetrahydro-1,8-naphthyridin-2-yl)butyl)amino)-2-((1-methyl-1H-pyrazolo[3,4-d]pyrimidin-4-yl)amino) butanoic acid], the IC50 is less than 50 nM.
